Assay results as given in ChEMBL document CHEMBL4819157, “Synthesis and biological evaluation of novel ligustrazine-chalcone derivatives as potential anti-triple negative breast cancer agents” (Bioorg Med Chem Lett, 2021).
Active and inactive are the calls of the source. No cut-off for these calls is given here.

What was measured:
MDA-MB-231 [1] = assay: Antiproliferation activity against human MDA-MB-231 cells assessed as reduction in cell viability after 72 hrs by CCK8 assay; assay type: functional, cell-based; conditions: MDA-MB-231, 72 h
MCF7 [2] = assay: Inhibition of colony formation in human MCF-7 cells at 0.25 to 2 times of IC50 concentration incubated for 48 hrs by plate colony counting assay; assay type: functional, cell-based
HUVEC = assay: Cytotoxicity against human HUVEC cells assessed as reduction in cell viability after 72 hrs by CCK8 assay; assay type: cell-based
MDA-MB-231 [3] = assay: Inhibition of cell migration in human MDA-MB-231 cells 0.5 to 2 times of IC50 incubated up to 48 hrs by scratch wound healing assay; assay type: functional, cell-based; conditions: time hrs <=48
MCF-10A = assay: Cytotoxicity against human MCF-10A cells assessed as reduction in cell viability after 72 hrs by CCK8 assay; assay type: cell-based
MCF7 [4] = assay: Inhibition of cell migration in human MCF-7 cells 0.5 to 2 times of IC50 incubated up to 48 hrs by scratch wound healing assay; assay type: functional, cell-based; conditions: time hrs <=48
MCF7 [5] = assay: Inhibition of colony formation in human MCF-7 cells at IC50 concentration upto 72 hrs by plate colony counting assay; assay type: functional, cell-based; conditions: time hrs <=72, TDE = time-dependent effect
HepG2 = assay: Antiproliferation activity against human HepG2 cells assessed as reduction in cell viability after 72 hrs by CCK8 assay; assay type: functional, cell-based; conditions: HepG2, 72 h
MDA-MB-231 [6] = assay: Inhibition of colony formation in human MDA-MB-231 cells at IC50 concentration upto 72 hrs by plate colony counting assay; assay type: functional, cell-based; conditions: time hrs <=72, TDE = time-dependent effect
A549 = assay: Antiproliferation activity against human A549 cells assessed as reduction in cell viability after 72 hrs by CCK8 assay; assay type: functional, cell-based; conditions: A549, 72 h
MDA-MB-231 [7] = assay: Inhibition of colony formation in human MDA-MB-231 cells at 0.25 to 2 times of IC50 concentration incubated for 48 hrs by plate colony counting assay; assay type: functional, cell-based
MCF7 [8] = assay: Antiproliferation activity against human MCF-7 cells assessed as reduction in cell viability after 72 hrs by CCK8 assay; assay type: functional, cell-based; conditions: MCF7, 72 h
MDA-MB-231 [9] = assay: Induction of cell cycle arrest in human […] cells assessed as decrease in accumulation of cells at S phase at 0.5 to 2 times of IC50 after 48 hrs by propidium iodide staining-based flow cytometric analysis; assay type: functional
[10] = Toxicity in mouse xenografted with human MDA-MB-468 cells assessed as effect on body weight at 25 to 75 mg/kg; assay type: organism-based; conditions: in vivo, dose 25-75 mg/kg
MDA-MB-231 [11] = assay: Induction of apoptosis in human MDA-MB-231 cells assessed as necrotic cells at 2 times of IC50 by Annexin V-FITC/PI double staining based flow cytometry analysis (reference value: 0.02%); assay type: functional
MDA-MB-231 [12] = assay: Induction of apoptosis in human MDA-MB-231 cells assessed as necrotic cells at IC50 by Annexin V-FITC/PI double staining based flow cytometry analysis (reference value: 0.02%); assay type: functional
MDA-MB-231 [13] = assay: Induction of apoptosis in human MDA-MB-231 cells assessed as viable cells at 0.5 times of IC50 by Annexin V-FITC/PI double staining based flow cytometry analysis (reference value: 93.34%); assay type: functional
MDA-MB-231 [14] = assay: Induction of apoptosis in human MDA-MB-231 cells assessed as early apoptotic cells at IC50 by Annexin V-FITC/PI double staining based flow cytometry analysis (reference value: 6.64%); assay type: functional
MDA-MB-231 [15] = assay: Induction of apoptosis in human MDA-MB-231 cells assessed as necrotic cells at 0.5 times of IC50 by Annexin V-FITC/PI double staining based flow cytometry analysis (reference value: 0.02%); assay type: functional
MDA-MB-231 [16] = assay: Induction of cell cycle arrest in human […] cells assessed as increase in accumulation of cells at G0/G1 phase at 0.5 to 2 times of IC50 after 48 hrs by propidium iodide staining-based flow cytometric analysis; assay type: functional
MDA-MB-231 [17] = assay: Induction of apoptosis in human MDA-MB-231 cells assessed as early apoptotic cells at 0.5 times of IC50 by Annexin V-FITC/PI double staining based flow cytometry analysis (reference value: 6.64%); assay type: functional
MDA-MB-231 [18] = assay: Induction of apoptosis in human MDA-MB-231 cells assessed as viable cells at 2 times of IC50 by Annexin V-FITC/PI double staining based flow cytometry analysis (reference value: 93.34%); assay type: functional
MDA-MB-231 [19] = assay: Induction of apoptosis in human MDA-MB-231 cells assessed as early apoptotic cells at 2 times of IC50 by Annexin V-FITC/PI double staining based flow cytometry analysis (reference value: 6.64%); assay type: functional
[20] = Antitumour activity against human MDA-MB-468 cells xenografted in mouse assessed as reduction in Ki67 positive cells at 50 mg/kg, by immunohistochemical analysis (reference value: 76.50 +/- 5.28%); assay type: functional, MDA-MB-231; parameters: scale not given: the % may be the effect or the level left
MDA-MB-231 [21] = assay: Induction of apoptosis in human MDA-MB-231 cells assessed as late apoptotic cells at IC50 by Annexin V-FITC/PI double staining based flow cytometry analysis (reference value: 0.00%); assay type: functional
MDA-MB-231 [22] = assay: Induction of cell cycle arrest in human […] cells assessed as decrease in accumulation of cells at G2/M phase at 0.5 to 2 times of IC50 after 48 hrs by propidium iodide staining-based flow cytometric analysis; assay type: functional
MDA-MB-231 [23] = assay: Induction of apoptosis in human MDA-MB-231 cells assessed as late apoptotic cells at 2 times of IC50 by Annexin V-FITC/PI double staining based flow cytometry analysis (reference value: 0.00%); assay type: functional
[24] = Antitumour activity against human MDA-MB-468 cells xenografted in mouse assessed as reduction in Ki67 positive cells at 75 mg/kg, by immunohistochemical analysis (reference value: 76.50 +/- 5.28%); assay type: functional, MDA-MB-231; parameters: scale not given: the % may be the effect or the level left
MDA-MB-231 [25] = assay: Induction of apoptosis in human MDA-MB-231 cells assessed as viable cells at IC50 by Annexin V-FITC/PI double staining based flow cytometry analysis (reference value: 93.34%); assay type: functional
MDA-MB-231 [26] = assay: Induction of apoptosis in human MDA-MB-231 cells assessed as late apoptotic cells at 0.5 times of IC50 by Annexin V-FITC/PI double staining based flow cytometry analysis (reference value: 0.00%); assay type: functional
[27] = Antitumour activity against human MDA-MB-468 cells xenografted in mouse assessed as reduction in Ki67 positive cells at 25 mg/kg, by immunohistochemical analysis (reference value: 76.50 +/- 5.28%); assay type: functional, MDA-MB-231; parameters: scale not given: the % may be the effect or the level left

Cc1nc(C)c(/C=C/C(=O)c2ccc(NC(=O)c3ccc(F)cc3)cc2)nc1C
IC50 (MDA-MB-231 [1]): 1.67 µM | inhibition (MCF7 [2]): Dose-Dependent Effect | IC50 (HUVEC): 32.7 µM | inhibition (MDA-MB-231 [3]): Dose-Dependent Effect | IC50 (MCF-10A): 42.9 µM | inhibition (MCF7 [4]): Dose-Dependent Effect | inhibition (MCF7 [5]): Tde | IC50 (HepG2): 2.25 µM | inhibition (MDA-MB-231 [6]): Tde | IC50 (A549): 4.48 µM | inhibition (MDA-MB-231 [7]): Dose-Dependent Effect | IC50 (MCF7 [8]): 1.54 µM

COc1cccc(OC)c1C(=O)Nc1ccc(C(=O)/C=C/c2nc(C)c(C)nc2C)cc1
IC50 (MDA-MB-231 [1]): 3.85 µM | IC50 (HepG2): 3.38 µM | IC50 (A549): 8.47 µM | IC50 (MCF7 [8]): 2.47 µM

Cc1nc(C)c(/C=C/C(=O)c2ccc(NC(=O)c3ccccc3F)cc2)nc1C
IC50 (MDA-MB-231 [1]): 1.98 µM | IC50 (HepG2): 2.04 µM | IC50 (A549): 7.39 µM | IC50 (MCF7 [8]): 1.27 µM

Cc1nc(C)c(C)nc1C [LIGUSTRAZINE]
IC50 (MDA-MB-231 [1]): 20.4 µM | IC50 (HepG2): 38.2 µM | IC50 (A549): 36.5 µM | IC50 (MCF7 [8]): 29.9 µM

O=C(/C=C/c1ccc(O)cc1)c1ccc(O)cc1O [ISOLIQUIRITIGENIN]
IC50 (MDA-MB-231 [1]): 10.9 µM | IC50 (HepG2): 27.7 µM | IC50 (A549): 52.6 µM | IC50 (MCF7 [8]): 17.7 µM

COc1ccc(C(=O)Nc2ccc(C(=O)/C=C/c3nc(C)c(C)nc3C)cc2)cc1OC
IC50 (MDA-MB-231 [1]): 3.36 µM | IC50 (HepG2): 2.56 µM | IC50 (A549): 5.06 µM | IC50 (MCF7 [8]): 1.66 µM

Cc1ccc(C(=O)Nc2ccc(C(=O)/C=C/c3nc(C)c(C)nc3C)cc2)cc1
IC50 (MDA-MB-231 [1]): 1.78 µM | IC50 (HepG2): 5.45 µM | IC50 (A549): 9.99 µM | IC50 (MCF7 [8]): 1.18 µM

COc1cc(OC)cc(C(=O)Nc2ccc(C(=O)/C=C/c3nc(C)c(C)nc3C)cc2)c1
IC50 (MDA-MB-231 [1]): 11.6 µM | IC50 (HepG2): 11 µM | IC50 (A549): 10.2 µM | IC50 (MCF7 [8]): 6.27 µM

COc1cc(C(=O)Nc2ccc(C(=O)/C=C/c3nc(C)c(C)nc3C)cc2)cc(OC)c1OC
IC50 (MDA-MB-231 [1]): 4.74 µM | IC50 (HepG2): 4.86 µM | IC50 (A549): 7.35 µM | IC50 (MCF7 [8]): 2.76 µM

O=c1[nH]cc(F)c(=O)[nH]1 [FLUOROURACIL]
IC50 (MDA-MB-231 [1]): 5.85 µM | IC50 (HepG2): 2.98 µM | IC50 (A549): 2.53 µM | IC50 (MCF7 [8]): 5.44 µM

COc1ccc(C(=O)Nc2ccc(C(=O)/C=C/c3nc(C)c(C)nc3C)cc2)cc1
Activity (MDA-MB-231 [9]): Active | IC50 (MDA-MB-231 [1]): 1.6 µM | Activity [10]: Non-Toxic | Activity (MDA-MB-231 [11]): 2.15% | Activity (MDA-MB-231 [12]): 2.89% | Activity (MDA-MB-231 [13]): 72.66% | Activity (MDA-MB-231 [14]): 43.98% | Activity (MDA-MB-231 [15]): 1.54% | inhibition (MCF7 [2]): Dose-Dependent Effect | Activity (MDA-MB-231 [16]): Active | IC50 (HUVEC): 29.2 µM | inhibition (MDA-MB-231 [3]): Dose-Dependent Effect | IC50 (MCF-10A): 59.6 µM | Activity (MDA-MB-231 [17]): 25.14% | inhibition (MCF7 [4]): Dose-Dependent Effect | Activity (MDA-MB-231 [18]): 30.97% | Activity (MDA-MB-231 [19]): 50.96% | Activity [20]: 11.29% | inhibition (MCF7 [5]): Tde | Activity (MDA-MB-231 [21]): 8.62% | IC50 (HepG2): 1.19 µM | inhibition (MDA-MB-231 [6]): Tde | IC50 (A549): 4.15 µM | Activity (MDA-MB-231 [22]): Active | Activity (MDA-MB-231 [23]): 15.92% | inhibition (MDA-MB-231 [7]): Dose-Dependent Effect | Activity [24]: 8.95% | Activity (MDA-MB-231 [25]): 44.51% | IC50 (MCF7 [8]): 1.41 µM | Activity (MDA-MB-231 [26]): 0.65% | Activity [27]: 19.51%

Cc1nc(C)c(/C=C/C(=O)c2ccc(NC(=O)c3ccccc3)cc2)nc1C
IC50 (MDA-MB-231 [1]): 1.84 µM | IC50 (HepG2): 1.31 µM | IC50 (A549): 7.27 µM | IC50 (MCF7 [8]): 0.99 µM

COc1cc2nccc(Oc3ccc(NC(=O)C4(C(=O)Nc5ccc(F)cc5)CC4)cc3)c2cc1OC [CABOZANTINIB]
IC50 (MDA-MB-231 [1]): 19.7 µM | IC50 (HepG2): 15.6 µM | IC50 (A549): 15.2 µM | IC50 (MCF7 [8]): 14.3 µM

Cc1nc(C)c(/C=C/C(=O)c2ccc(NC(=O)c3ccc(F)cc3F)cc2)nc1C
IC50 (MDA-MB-231 [1]): 1.77 µM | IC50 (HepG2): 2.99 µM | IC50 (A549): 2.45 µM | IC50 (MCF7 [8]): 1.61 µM
